# Measured values as given in patent US9066947B2, “Indolyl-substituted pyrazino[1,2-b]isoquinolines for cancer treatment” (Everest Biosciences, Inc., priority 2009, dated 2015).
# Tests used:
# VEGF receptor 2 = assay: Immunohistochemical analysis of VEGF receptor 2 expression in PC-3 xenograft tumors; assay type: in vivo, human; conditions: versus Control mice (FIG. 5)
# Protocol: (§1) FIG. 5: Effect of Substance X on Expression of VEGF and VEGF Receptor 2 Immunohistochemical analysis of VEGF and VEGF receptor 2 was performed in tumors from the Control mice and the mice treated with Substance X. The representative pictures are shown. Tumor sections (Control) or (Substance X) were stained with antibody against human VEGF and VEGF Receptor 2.
# (§2) The treatment of the compound of Example 1 (also referred to herein as “Substance X”) or PBS containing 5% DMSO (vehicle) as Control was started when tumors reached the desired size as described above. In the first experimental setting, Substance X was administered intravenously once every other day. […] Tumor growth was assessed periodically as described in Results. […] The sections were stained with hematoxylineosin (H&E) or imunohistochemical stained with antibodies and analyzed under an optical microscope. […]
# (§3) Immunohistochemistry on tumor tissues was performed as previously described (Wegiel B, Bjartell A, Ekberg J, Gadaleanu V, Brunhoff C and Persson J L: A role for cyan AI in mediating the autocrine expression of vascular endothelial growth factor in prostate cancer. Oncogene 24: 6385-6393, 2005) by using antibodies to human CD-31 (Dako, Goistrup, Denmark A/S). […] For analysis of tumor angiogenesis, tumor sections stained with antibody against CD3I were examined and quantified. […]
# PC-3 tumors [1] = assay: PC-3 prostate cancer xenograft mouse model of tumor growth and metastasis; assay type: in vivo, athymic NMRI nude mice
# Excerpt: Athymic NMRI nude mice between 6-8 weeks old (Taconic; Bomholt, Denmark) were used. Prostate cancer xenograft mouse model was created by implanting hormone-independent PC3 tumor cells subcutaneously into athymic nude mice as previously described (Wegiel B, Bjartell A, Tuomela J, et al.: Multiple cellular mechanisms related to cyclin Al in prostate cancer invasion and metastasis. Journal of the National Cancer Institute 100: 10221036, 2008).
# PC-3 cells were purchased from American Type Culture Collection (Manassas, V A) and cultured in RPMI-1640 supplemented with 10% Fetal Bovine Serum. PC-3 cells at 1×10^6/per mouse were used. The mice were divided into three groups (6 mice per group). The first group allowed tumors to grow between 170-400 mm^3 in size before starting the treatment. The second group allowed tumors to grow between 550-650 mm^3 in size before starting the treatment. The third group allowed tumors to grow between 700-800 mm^3 in size before starting the treatment. The tumor diameters were measured twice weekly using calipers. The tumor volumes were calculated using an equation of a*(b2/2) where a and b represent the length and width of the tumor, respectively.
# The treatment of the compound of Example 1 (also referred to herein as “Substance X”) or PBS containing 5% DMSO (vehicle) as Control was started when tumors reached the desired size as described above. In the first experimental setting, Substance X was administered intravenously once every other day. In the second experimental setting, Substance X was administrated orally once every other day. Tumor growth was assessed periodically as described in Results. The mice were sacrificed after treatment by euthanization via isofluorene inhalation. Lymph node, liver, lung, spleen and femurs were removed from each mouse. Half of the tumor tissues were used for histology and immunohistochemical analysis. For histology analysis, tissues were fixed in 4% paraformaldehyde and embedded in paraffin. The sections were stained with hematoxylineosin (H&E) or imunohistochemical stained with antibodies and analyzed under an optical microscope. The other half of the tissues were used for protein analysis and thus were snapfrozen in liquid nitrogen. The body weights of the mice on the first and last day of the treatment were collected and compared. Tumor invasion and metastasis were examined in various tissues from the sacrificed mice.
# For a comparison study, mice with tumors at 190-250 mm^3 in size were treated with the cytotoxic drug Etoposide (Sigma) at a dose of 20 mg/kg via IV injection once every other day. The tumor size was measured as described in the Results. Three mice were treated with Etoposide or the vehicle as Control. The mice were sacrificed and the tissues were collected as described above.
# PC-3 tumors [2] = assay: as above; assay type: in vivo, athymic NMRI nude mice; conditions: tumors 500-600 mm3 at start, 40 mg/kg intravenous injection, day 20 (FIG. 2)
# [3] = Safety in PC-3 tumor-bearing xenograft mice; assay type: in vivo; conditions: PC-3 tumor-bearing mice, 40 mg/kg daily for 30 days
# Protocol: (§4) For the assessment of toxicity of Substance X, healthy mice were treated with Substance X by intravenous injection at a dose of 100 mg/kg or 200 mg/kg once every other day for 13 days. Body weight of each mouse was measured periodically from Day 1 to Day 13 of the treatment. Cage-side observations including: mortality, moribundity, food consumption and activities were performed once every other day. Blood samples were taken on Day 1 and Day 13 for measurement of blood cell counts. To assess toxicity of Substance X on mice with tumors, mice bearing subcutaneous PC-3 tumors were treated with Substance X at a high dose of 200 mg/kg once every other day for 19 days. Body weight was measured and cage-side observations were performed once every other day. Lymph node, liver, lung, spleen and femurs were removed from each mouse and were examined. Toxicity of Substance X was also assessed in tumor-bearing mice treated with 80 mg/kg of Substance X daily as described above.
# We then tested the high dose of Substance X in PC-3 xenograft mice, thereby mimicking its effect on prostate cancer patients. We generated mouse xenograft of human PC-3 tumors by subcutaneous implantation of tumor cells into nude mice. We further tested safety of the dose of 40 mg/kg which generated significant anti-tumor activity in the xenograft mouse model.
# [4] = system: PC-3 prostate cancer cells; assay: Cell proliferation assay (trypan blue viable cell count) and IC50 determination; assay type: cell-based, human; conditions: PC-3 cells
# Protocol: All new synthesized compounds and Etoposide were first dissolved in 100% DMSO at initial concentration of 100 mM, and then diluted at final concentration of 200 uM in culture medium. Commercial form of Avastin (25 mg/ml) was diluted to appropriate concentrations in culture medium.
# Hormone-independent and metastatic PC-3 prostate cancer cells were purchased from the American Type Culture Collection (Manassas, Va., USA) and cultured in RPMI-1640 supplemented with 10% fetal bovine serum. Etoposide was purchased from Sigma, Avastin from Roche.
# For cell counting a total of 6×10^4 cells at a density of 0.3×10^6/ml were seeded in 96-well plate. The cells were treated with compounds, Etoposide or Avastin as positive controls at 1 uM, 5 uM, 10 uM, 20 uM, 50 uM, 100 uM for 48 hours. For Avastin 5 uM, 20 uM and 50 uM concentrations were used. The cells were labeled with trypan blue and the viable cells were quantified.
# [5] = Basic toxicity study in healthy mice; assay type: in vivo; conditions: for cage-side observations (food consumption, daily activities, toxic effect) / histology of livers and kidney: 13 days
# Protocol: as §4
# VEGF = assay: Immunohistochemical analysis of VEGF expression in PC-3 xenograft tumors; assay type: in vivo, human; conditions: versus Control mice (FIG. 5)
# Protocol: as §1, §2, §3
# CD31 = assay: Quantification of angiogenesis by CD31 immunohistochemistry in PC-3 xenograft tumors; assay type: in vivo, human; conditions: versus Control tumors (FIG. 6)
# Protocol: B. Immunohistochemical analysis of tumors from the Control mice and mice treated with Substance X for the expression of CD31. Tumor sections (Control) or (Substance X) were stained with antibody against CD31. (B). Regions of high vascular density at centre or the edge areas within the tumors were examined. The number of CD31-positive pixels per microscopic field was recorded. At least two sections per tumor and three views per section were determined. The statistical T-test was performed and was two-sided and P value less than 0.05 was considered to be statistically significant, P value less than 0.01 is labelled as two asterisks.
# Immunohistochemistry on tumor tissues was performed as previously described (Wegiel B, Bjartell A, Ekberg J, Gadaleanu V, Brunhoff C and Persson J L: A role for cyan AI in mediating the autocrine expression of vascular endothelial growth factor in prostate cancer. Oncogene 24: 6385-6393, 2005) by using antibodies to human CD-31 (Dako, Goistrup, Denmark A/S). Antirabbit peroxidase-conjugated secondary antibodies were applied. Diaminobenzidine colorimetric reagent solution (Dako) was used. […] For analysis of tumor angiogenesis, tumor sections stained with antibody against CD3I were examined and quantified. […] The number of CD31-positive pixels per microscopic field was recorded. At least two sections per tumor and three views per section were determined.
# [6] = healthy mice, 100 mg/kg i.v. once every other day
compound,measurement,setting,value
"CN1CC(=O)N2[C@H](c3c[nH]c4ccccc34)c3cc4c(cc3C[C@H]2C1=O)OCO4 [Substance X, (5S,9aS)-5-(1H-Indol-3-yl)-8-methyl-7,8,9a,10-tetrahydro-5H-1,3-dioxa-5a,8-diaza-cyclopenta[b]anthracene-6,9-dione]",expression of VEGFR2 in tumors,VEGF receptor 2,significantly down-regulated
same,tumor size after switch to oral administration,"PC-3 tumors [1]; 40 mg/kg i.v. for 20 days, from day 21 40 mg/kg oral, versus continuous i.v.",slightly larger tumor size than the mice treated by continuous intravenous injection
same,"tumor growth (large and invasive tumors, longer treatment)",PC-3 tumors [1]; 40 mg/kg intravenous injection for 30 days,inhibited throughout the treatment period and the tumors shrank significantly at the end of the treatment
same,infiltration of tumor cells into secondary sites (metastasis),"PC-3 tumors [1]; 40 mg/kg, end of study, histology and immunohistochemical analysis",no infiltration of tumor cells into secondary sites could be detected
same,size of tumors in whole-tumor histology sections,"PC-3 tumors [1]; VEGF receptor 2 stained sections, versus Control mice (FIG. 6A)",smaller than that from the Control mice
same,oral bioavailability,PC-3 tumors [1]; inferred from tumor size after oral versus intravenous 40 mg/kg,"orally bioavailable, yet the oral bioavailability is lower than intravenous injection"
same,tumor growth,"PC-3 tumors [1]; tumors 190-240 mm3 at start, 20 mg/kg intravenously, 21 days",tumor shrank
same,"tumor growth, oral administration throughout","PC-3 tumors [1]; tumors 300-350 mm3 at start, 40 mg/kg oral (FIG. 3)","able to inhibit the tumor growth, although the effect was not as strong as intravenous injection"
same,"tumor growth, comparison of Etoposide and Substance X","PC-3 tumors [1]; tumors about 250 mm3, IV once every other day for 14 days, Etoposide 20 mg/kg, Substance X 40 mg/kg (FIG. 4)",stronger inhibitory effect on tumors as compared to Etoposide
same,tumor growth (large tumors),PC-3 tumors [2],did not grow but showed a slight decrease in size
same,body weights,[3],remained constant throughout the period of treatment
same,"cage-side observations (food consumption, daily activities, toxic effect)",[3],"no abnormality on food consumption and/or daily activities, or any other observable toxic effect"
same,histology of livers and kidney,[3],no abnormality in histology
same,IC50,"[4]; Homo sapiens, viable cells after 48 hours, read-out: IC50 for cell growth inhibition",30 µM
same,concentration from which statistically significant cell growth inhibition started,[4]; 48 hours,5 µM
same,"cage-side observations (food consumption, daily activities, toxic effect)",[5]; 200 mg/kg once every other day,"no abnormality on food consumption and daily activities, or any observable toxic effect"
same,histology of livers and kidney,[5]; 200 mg/kg once every other day,no abnormality in histology
same,body weights,"[5]; 200 mg/kg once every other day, 13 days (FIG. 1B)",steady throughout the study period
same,"cage-side observations (food consumption, daily activities, toxic effect)",[5]; [6],"no abnormality on food consumption and daily activities, or any observable toxic effect"
same,histology of livers and kidney,[5]; [6],no abnormality in histology
same,change in body weight,"[5]; healthy mice, 100 mg/kg i.v. once every other day, 13 days (FIG. 1A)",no significant change in body weight
same,expression of VEGF in tumors,VEGF,significantly down-regulated
same,CD31 expression and number of CD31-expressing vessels in tumors,CD31,statistically significant decrease
